Results reported in patent US9408842B2, “Substituted pyrano and furanoquinolines, their preparation and use as medicaments” (LABORATORIOS DEL DR. ESTEVE S.A., priority 2012, dated 2016).
Counter-ions that a name gives are not always drawn.

Biological target: T1, σ1-receptor (Cavia porcellus, UniProt Q60492)
T1 construct: Guinea pig brains were homogenized in 10 vols; (w/v) of Tris-HCl 50 mM 0.32 M sucrose, pH 7.4; from tissue; host or cells: guinea pig brain membranes
Experiment: binding assay for the σ1-receptor, [3H]-(+)-pentazocine, brain membranes
Conditions: guinea pig brain membranes; radioligand [3H]-(+)-pentazocine 5.0 nM; 150 min at 37° C.; nonspecific binding with 1 μM haloperidol
Experimental: Guinea pig brains were homogenized in 10 vols. (w/v) of Tris-HCl 50 mM 0.32 M sucrose, pH 7.4, with a Kinematica Polytron PT 3000 at 15000 r.p.m. for 30 s. The homogenate was centrifuged at 1000 g for 10 min at 4° C. and the supernatants collected and centrifuged again at 48000 g for 15 min at 4° C. The pellet was resuspended in 10 volumes of Tris-HCl buffer (50 mM, pH 7.4), incubated at 37° C. for 30 min, and centrifuged at 48000 g for 20 min at 4° C. Following this, the pellet was re-suspended in fresh Tris-HCl buffer (50 mM, pH 7.4) and stored on ice until use.
The radioligand used was [^3H]-(+)-pentazocine at 5.0 nM and the final volume was 200 μl. The incubation was initiated with the addition of 100 μl of membrane at a final tissue concentration of approximately 5 mg tissue net weight/mL and the incubation time was 150 m. at 37° C. After incubation, the membranes were collected onto pretreated glass fiber filterplate (MultiScreen-FC, Millipore), with polyethylenimine 0.1%. The filters were washed two times with 200 μl of washing buffer (50 mM Tris Cl, pH=7.4) and then 25 μl of Ecoscint H liquid scintillation cocktail were added. […] Nonspecific binding was determined with 1 μM haloperidol.

T1 sequence (Q60492 whole entry): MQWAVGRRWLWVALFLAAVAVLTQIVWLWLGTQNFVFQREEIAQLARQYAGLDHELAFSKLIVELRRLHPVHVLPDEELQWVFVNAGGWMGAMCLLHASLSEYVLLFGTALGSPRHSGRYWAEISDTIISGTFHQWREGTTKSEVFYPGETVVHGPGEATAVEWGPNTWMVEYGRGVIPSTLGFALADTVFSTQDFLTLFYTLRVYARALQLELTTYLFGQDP

Row | Structure (SMILES) | Ki
1 | Clc1cccc(Oc2ccc3c(c2)[C@H]2OCCC[C@H]2[C@@H](C2CCCCC2)N3)c1 (racemic) [Example 1, (4aSR*,5RS*,10bSR*)-9-(3-chlorophenoxy)-5-cyclohexyl-3,4,4a,5,6,10b-hexahydro-2H-pyrano[3,2-c]quinoline hydrochloride] | 187 nM
2 | CC(C)CCOc1ccc2c(c1)[C@H]1OCCC[C@H]1[C@@H](C1CCN(Cc3ccccc3)CC1)N2 (racemic) [Example 6, (4aSR*,5RS*,10bSR*)-5-(1-benzylpiperidin-4-yl)-9-(isopentyloxy)-3,4,4a,5,6,10b-hexahydro-2H-pyrano[3,2-c]quinoline hydrochloride] | 15.1 nM
3 | CCCCOc1ccc2c(c1)[C@H]1OCCC[C@H]1[C@@H](C1CCCCC1)N2 (racemic) [Example 16, (4aSR*,5RS*,10bSR*)-9-butoxy-5-cyclohexyl-3,4,4a,5,6,10b-hexahydro-2H-pyrano[3,2-c]quinoline hydrochloride] | 122 nM
4 | CC(C)CCOc1ccc2c(c1)[C@H]1OCCC[C@H]1[C@@H](C1CCCCC1)N2 (racemic) [Example 27, (4aSR*,5RS*,10bSR*)-5-cyclohexyl-9-(isopentyloxy)-3,4,4a,5,6,10b-hexahydro-2H-pyrano[3,2-c]quinoline hydrochloride] | 51.6 nM
5 | CC(C)CCOc1ccc2c(c1)[C@H]1OCC[C@H]1[C@@H](C1CCCCC1)N2 (racemic) [Example 32, (3aSR*,4RS*,9bSR*)-4-cyclohexyl-8-(isopentyloxy)-2,3,3a,4,5,9b-hexahydrofuro[3,2-c]quinoline hydrochloride] | 108 nM
6 | c1cc2c(cc1OCCN1CCOCC1)[C@H]1OCC[C@H]1[C@@H](C1CCCCC1)N2 (racemic) [Example 41, (3aSR*,4RS*,9bSR*)-4-cyclohexyl-8-(2-morpholinoethoxy)-2,3,3a,4,5,9b-hexahydrofuro[3,2-c]quinoline hydrochloride] | 131 nM
7 | Clc1ccc(Oc2ccc3c(c2)[C@H]2OCCC[C@H]2[C@@H](C2CCCCC2)N3)cc1 (racemic) [Example 55, (4aSR*,5RS*,10bSR*)-9-(4-chlorophenoxy)-5-cyclohexyl-3,4,4a,5,6,10b-hexahydro-2H-pyrano[3,2-c]quinoline hydrochloride] | 194 nM
8 | CCCCCc1ccc2c(c1)[C@H]1OCCC[C@H]1[C@@H](C1CCCCC1)N2 (racemic) [Example 59, (4aSR*,5RS*,10bSR*)-5-cyclohexyl-9-pentyl-3,4,4a,5,6,10b-hexahydro-2H-pyrano[3,2-c]quinoline] | 132 nM
9 | CCCCCc1ccc2c(c1)[C@H]1OCCC[C@H]1[C@@H](C1CCCCC1)N2 (racemic) [Example 60, (4aSR*,5RS*,10bSR*)-5-cyclohexyl-9-pentyl-3,4,4a,5,6,10b-hexhaydro-2H-pyrano[3,2-c]quinoline hydrochloride] | 42.6 nM
10 | CCCCCc1ccc2c(c1)[C@H]1OCCC[C@H]1[C@@H](C1CCOCC1)N2 (racemic) [Example 63, (4aSR*,5RS*,10bSR*)-9-pentyl-5-(tetrahydro-2H-pyran-4-yl)-3,4,4a,5,6,10b-hexahydro-2H-pyrano[3,2-c]quinoline hydrochloride] | 61.9 nM
11 | c1cc2c(cc1OCCN1CCOCC1)[C@H]1OCCC[C@H]1[C@@H](C1CCCCC1)N2 (racemic) [Example 67, (4aSR*,5RS*,10bSR*)-5-cyclohexyl-9-(2-morpholinoethoxy)-3,4,4a,5,6,10b-hexahydro-2H-pyrano[3,2-c]quinoline] | 311 nM
12 | c1ccc(Oc2ccc3c(c2)[C@H]2OCCC[C@H]2[C@@H](C2CCSCC2)N3)cc1 (racemic) [Example 71, (4aSR*,5RS*,10bSR*)-9-phenoxy-5-(tetrahydro-2H-thiopyran-4-yl)-3,4,4a,5,6,10b-hexahydro-2H-pyrano[3,2-c]quinoline hydrochloride] | 349 nM
13 | CCCCCc1ccc2c(c1)[C@H]1OCC[C@H]1[C@@H](C1CCCCC1)N2 (racemic) [Example 84, (3aSR*,4RS*,9bSR*)-4-cyclohexyl-8-pentyl-2,3,3a,4,5,9b-hexahydrofuro[3,2-c]quinoline hydrochloride] | 244 nM
14 | CCCCCc1ccc2c(c1)[C@H]1OCC[C@H]1[C@@H](C1CCOCC1)N2 (racemic) [Example 85, (3aSR*,4RS*,9bSR*)-8-pentyl-4-(tetrahydro-2H-pyran-4-yl)-2,3,3a,4,5,9b-hexahydrofuro[3,2-c]quinoline hydrochloride] | 155 nM
15 | Clc1ccc(Oc2ccc3c(c2)[C@H]2OCC[C@H]2[C@@H](C2CCCCC2)N3)cc1 (racemic) [Example 86, (3aSR*,4RS*,9bSR*)-8-(4-chlorophenoxy)-4-cyclohexyl-2,3,3a,4,5,9b-hexahydrofuro[3,2-c]quinoline] | 78.2 nM
16 | Clc1ccc(Oc2ccc3c(c2)[C@H]2OCC[C@H]2[C@@H](C2CCCCC2)N3)cc1 (racemic) [Example 87, (3aSR*,4RS*,9bSR*)-8-(4-chlorophenoxy)-4-cyclohexyl-2,3,3a,4,5,9b-hexahydrofuro[3,2-c]quinoline hydrochloride] | 302 nM
17 | Fc1ccc(COc2ccc3c(c2)[C@H]2OCC[C@H]2[C@@H](C2CCCCC2)N3)cc1 (racemic) [Example 91, (3aSR*,4RS*,9bSR*)-4-cyclohexyl-8-(4-fluorobenzyloxy)-2,3,3a,4,5,9b-hexahydrofuro[3,2-c]quinoline hydrochloride] | 267 nM
18 | Clc1ccc(Oc2ccc3c(c2)[C@H]2OCC[C@H]2[C@@H](C2CCCCC2)N3)cc1Cl (racemic) [Example 92, (3aSR*,4RS*,9bSR*)-4-cyclohexyl-8-(3,4-dichlorophenoxy)-2,3,3a,4,5,9b-hexahydrofuro[3,2-c]quinoline hydrochloride] | 110 nM
19 | Clc1ccc(Oc2ccc3c(c2)[C@H]2OCCC[C@H]2[C@@H](C2CCCCC2)N3)cc1Cl (racemic) [Example 93, (4aSR*,5RS*,10bSR*)-5-cyclohexyl-9-(3,4-dichlorophenoxy)-3,4,4a,5,6,10b-hexahydro-2H-pyrano[3,2-c]quinoline hydrochloride] | 79.3 nM
20 | CCCCCc1ccc2c(c1)[C@H]1OCC[C@H]1[C@@H](C1CCSCC1)N2 (racemic) [Example 95, (3aSR*,4RS*,9bSR*)-8-pentyl-4-tetrahydro-2H-thiopyran-4-yl)-2,3,3a,4,5,9b-hexahydrofuro[3,2-c]quinoline hydrochloride] | 89.1 nM
21 | CC(C)CCOc1ccc2c(c1)[C@H]1OCCC[C@H]1[C@@H](C1CCNCC1)N2 (racemic) [Example 100, (4aSR*,5RS*,10bSR*)-9-(isopentyloxy)-5-(piperidin-4-yl)-3,4,4a,5,6,10b-hexahydro-2H-pyrano[3,2-c]quinoline hydrochloride] | 536 nM
22 | CC(C)CCOc1ccc2c(c1)[C@H]1OCCC[C@H]1[C@@H](C1CCOCC1)N2 (racemic) [Example 101, (4aSR*,5RS*,10bSR*)-9-(isopentyloxy)-5-(tetrahydro-2H-pyran-4-yl)-3,4,4a,5,6,10b-hexahydro-2H-pyrano[3,2-c]quinoline hydrochloride] | 84 nM
23 | c1cc2c(cc1N1CCOCC1)[C@H]1OCC[C@H]1[C@@H](C1CCCCC1)N2 (racemic) [Example 103, (3aSR*,4RS*,9bSR*)-4-cyclohexyl-8-morpholino-2,3,3a,4,5,9b-hexahydrofuro[3,2-c]quinoline hydrochloride] | 337 nM
24 | CC(C)CCOc1ccc2c(c1)[C@H]1OCCC[C@H]1[C@@H](C1CCCC1)N2 (racemic) [Example 105, (4aSR*,5RS*,10bSR*)-5-cyclopentyl-9-(isopentyloxy)-3,4,4a,5,6,10b-hexahydro-2H-pyrano[3,2-c]quinoline hydrochloride] | 124 nM
25 | NCCCOc1ccc2c(c1)[C@H]1OCC[C@H]1[C@@H](C1CCCCC1)N2 (racemic) [Example 106, 3-((3aSR*,4RS*,9bSR*)-4-cyclohexyl-2,3,3a,4,5,9b-hexahydrofuro[3,2-c]quinolin-8-yloxy)propan-1-amine hydrochloride] | 25.3 nM
26 | COc1ccc2c(c1)[C@H]1OCCC[C@H]1[C@@H](C1CCN(CCc3ccccc3)CC1)N2 (racemic) [Example 108, (4aSR*,5RS*,10bSR*)-9-methoxy-5-(1-phenethylpiperidin-4-yl)-3,4,4a,5,6,10b-hexahydro-2H-pyrano[3,2-c]quinoline hydrochloride] | 279 nM
27 | COc1ccc2c(c1)[C@H]1OCCC[C@H]1[C@@H](C1CCN(Cc3ccc(Cl)cc3)CC1)N2 (racemic) [Example 109, (4aSR*,5RS*,10bSR*)-5-(1-(4-chlorobenzyl)piperidin-4-yl)-9-methoxy-3,4,4a,5,6,10b-hexahydro-2H-pyrano[3,2-c]quinoline hydrochloride] | 27.2 nM
28 | CCN1CCC([C@H]2Nc3ccc(OCCC(C)C)cc3[C@H]3OCCC[C@H]32)CC1 (racemic) [Example 110, (4aSR*,5RS*,10bSR*)-5-(1-ethylpiperidin-4-yl)-9-(isopentyloxy)-3,4,4a,5,6,10b-hexahydro-2H-pyrano[3,2-c]quinoline hydrochloride] | 317 nM
29 | NCCCCOc1ccc2c(c1)[C@H]1OCCC[C@H]1[C@@H](C1CCCCC1)N2 (racemic) [Example 111, 4-((4aSR*,5RS*,10bSR*)-5-cyclohexyl-3,4,4a,5,6,10b-hexahydro-2H-pyrano[3,2-c]quinolin-9-yloxy)butan-1-amine hydrochloride] | 242 nM
